Reference: ChEMBL document CHEMBL1130294, “Subsite requirements for peptide aldehyde inhibitors of human calpain I” (Bioorg Med Chem Lett, 1997)
Non-standard residues stand in square brackets, D forms with d. Residues, ends and D or L forms follow the SMILES beside them. *: point of attachment. tBuAla = CC(C)(C)C[C@H](N)C(=O)O; Tic = O=C(O)[C@@H]1Cc2ccccc2CN1; Cha = N[C@@H](CC1CCCCC1)C(=O)O; Tle = CC(C)(C)[C@H](N)C(=O)O; Nle = CCCC[C@H](N)C(=O)O; Abu = CC[C@H](N)C(=O)O; Cbz = O=C(OCc1ccccc1)*; Boc = CC(C)(C)OC(=O)*; Bn = c1ccc(C*)cc1; OtBu = CC(C)(C)O*; tBu = CC(C)(C)*

Target: T1, Calpain-1 catalytic subunit (Homo sapiens, UniProt P07384)
T1 sequence (P07384 whole entry): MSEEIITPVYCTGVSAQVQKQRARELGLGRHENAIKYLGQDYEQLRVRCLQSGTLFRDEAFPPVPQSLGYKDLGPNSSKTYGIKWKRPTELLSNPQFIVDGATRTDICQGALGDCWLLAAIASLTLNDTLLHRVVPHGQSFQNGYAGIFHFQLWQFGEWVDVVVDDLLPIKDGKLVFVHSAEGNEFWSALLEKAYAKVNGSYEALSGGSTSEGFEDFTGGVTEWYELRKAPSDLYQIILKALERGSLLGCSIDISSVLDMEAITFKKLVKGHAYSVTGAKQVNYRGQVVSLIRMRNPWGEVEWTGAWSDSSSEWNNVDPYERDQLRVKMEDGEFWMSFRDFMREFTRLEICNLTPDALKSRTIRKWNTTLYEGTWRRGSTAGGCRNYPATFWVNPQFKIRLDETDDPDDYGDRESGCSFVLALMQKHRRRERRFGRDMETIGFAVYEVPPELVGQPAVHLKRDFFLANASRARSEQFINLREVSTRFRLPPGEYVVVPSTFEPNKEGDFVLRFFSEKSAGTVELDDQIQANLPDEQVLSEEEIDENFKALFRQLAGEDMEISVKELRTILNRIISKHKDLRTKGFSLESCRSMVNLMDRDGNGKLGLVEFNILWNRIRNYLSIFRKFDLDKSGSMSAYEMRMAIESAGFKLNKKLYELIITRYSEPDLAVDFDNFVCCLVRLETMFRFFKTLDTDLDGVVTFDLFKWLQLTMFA
Test: Inhibitory activity evaluated against recombinant human calpain 1

SMILES | IC50 [nM]
CC(C)C[C@@H](C=O)NC(=O)[C@H](Cc1c[nH]c2ccccc12)NC(=O)OCc1ccccc1 (Cbz-Trp-Leu-aldehyde) | 120
CC(C)C[C@@H](C=O)NC(=O)[C@H](CC(C)C)N(C)C(=O)OCc1ccccc1 | > 10000
CC(=O)N[C@H](C(=O)N[C@@H](Cc1ccccc1)C(=O)N[C@H](C=O)CC(C)C)C(C)C (Ac-Val-Phe-Leu-aldehyde) | 110
CC(C)C[C@@H](C=O)NC(=O)[C@@H](NC(=O)OCc1ccccc1)[C@H](C)O | 190
CC(C)C[C@@H](C=O)NC(=O)[C@H](Cc1ccc(O)cc1)NC(=O)OCc1ccccc1 (Cbz-Tyr-Leu-aldehyde) | > 1000
CC(C)C[C@@H](C=O)NC(=O)[C@H](CCCCN)NC(=O)[C@H](CC(C)C)NC(=O)OCc1ccccc1 (Cbz-Leu-Lys-Leu-aldehyde) | ~10000
CC(=O)N[C@@H](CC(C)C)C(=O)N[C@@H](CC(C)C)C(=O)NCC=O (Ac-Leu-Leu-Gly-aldehyde) | ~1000
CC(C)C[C@@H](C=O)NC(=O)[C@H](CC(C)C)NC(=O)c1ccccc1C(=O)O | > 1000
CC(C)C[C@@H](C=O)NC(=O)CNC(=O)[C@H](CC(C)C)NC(=O)OCc1ccccc1 (Cbz-Leu-Gly-Leu-aldehyde) | ~10000
CC(=O)N[C@@H](CC(C)C)C(=O)N[C@@H](CC(C)C)C(=O)N[C@H](C=O)CCCNC(=N)N | 72
CC(C)C[C@@H](C=O)NC(=O)[C@H](CO)NC(=O)OCc1ccccc1 (Cbz-Ser-Leu-aldehyde) | 530
CC(C)C[C@@H](C=O)NC(=O)[C@H](CCC(=O)O)NC(=O)[C@H](CC(C)C)NC(=O)OCc1ccccc1 (Cbz-Leu-Glu-Leu-aldehyde) | 1200
CC(=O)N[C@@H](CC(C)C)C(=O)N[C@@H](CC(C)C)C(=O)N[C@H](C=O)CCC(=O)OC(C)(C)C (Ac-Leu-Leu-Glu(OtBu)-aldehyde) | 1100
CC(C)C[C@@H](C=O)NC(=O)CCNC(=O)OCc1ccccc1 | > 10000
CC(=O)N[C@@H](CC(C)C)C(=O)N[C@@H](CC(C)C)C(=O)N[C@H](C=O)Cc1c[nH]c2ccccc12 (Ac-Leu-Leu-Trp-aldehyde) | 150
CC(C)C[C@@H](C=O)NC(=O)[C@H](C)NC(=O)[C@H](CC(C)C)NC(=O)OCc1ccccc1 (Cbz-Leu-Ala-Leu-aldehyde) | 90
CC(C)C[C@@H](C=O)NC(=O)[C@H](CCC(N)=O)NC(=O)OCc1ccccc1 (Cbz-Gln-Leu-aldehyde) | 370
CC(C)C[C@@H](C=O)NC(=O)[C@H](CC(C)(C)C)NC(=O)OCc1ccccc1 (Cbz-[tBuAla]-Leu-aldehyde) | 140
CC(C)C[C@@H](C=O)NC(=O)[C@H](Cc1ccccc1)NC(=O)[C@H](CC(C)C)NC(=O)OCc1ccccc1 (Cbz-Leu-Phe-Leu-aldehyde) | 68
CC(C)C[C@@H](C=O)NC(=O)[C@H](CC1CCCCC1)NC(=O)OCc1ccccc1 (Cbz-[Cha]-Leu-aldehyde) | 580
CC(C)C[C@H](NC(=O)OCc1ccccc1)C(=O)N[C@@H](C)C=O (Cbz-Leu-Ala-aldehyde) | 120
CC(C)C[C@H](C=O)NC(=O)OCc1ccccc1 | 10000
CC(C)C[C@H](NC(=O)OCc1ccccc1)C(=O)N[C@H](CC=O)Cc1ccccc1 | > 1000
CC(C)C[C@@H](C=O)NC(=O)[C@H](Cc1ccccc1)NC(=O)OCc1ccccc1 (Cbz-Phe-Leu-aldehyde) | 230
CC(C)C[C@@H](C=O)NC(=O)[C@H](CC(C)C)NC(=O)/C=C\C(=O)O | ~10000
CC(C)C[C@H](NC(=O)OCc1ccccc1)C(=O)N(C)[C@H](C=O)CC(C)C | > 1000
CC(C)C[C@H](NC(=O)OCc1ccccc1)C(=O)NCC=O (Cbz-Leu-Gly-aldehyde) | 300
CC(C)C[C@H](NC(=O)OCc1ccccc1)C(=O)NCCC=O | > 10000

Compounds with a lower IC50, results first:

IC50 [nM] | SMILES
4 | CC(C)C[C@@H](C=O)NC(=O)[C@@H](NC(=O)OCc1ccccc1)C(C)(C)C (Cbz-[Tle]-Leu-aldehyde)
33 | CSCC[C@@H](C=O)NC(=O)[C@H](CC(C)C)NC(=O)OCc1ccccc1 (Cbz-Leu-Met-aldehyde)
10 | CC[C@@H](C=O)NC(=O)[C@H](CC(C)C)NC(=O)OCc1ccccc1 (Cbz-Leu-[Abu]-aldehyde)
23 | CSCCC(C=O)NC(=O)C(CC(C)C)NC(=O)[C@H](CC(C)C)NC(C)=O (single isomer, unassigned)
7 | CC(C)C[C@H](NC(=O)OCc1ccccc1)C(=O)N[C@H](C=O)Cc1ccc(OCc2ccccc2)cc1 (Cbz-Leu-Tyr(Bn)-aldehyde)
12 | CC(C)C[C@@H](C=O)NC(=O)[C@H](CC(C)C)NC(=O)[C@H](COC(C)(C)C)NC(=O)OCc1ccccc1 (Cbz-Ser(tBu)-Leu-Leu-aldehyde)
10 | CC(C)C[C@@H](C=O)NC(=O)[C@H](CC(C)C)NC(=O)[C@H](CC(C)C)NC(=O)c1ccc2ccccc2c1
31 | CC(C)C[C@@H](C=O)NC(=O)[C@H](Cc1ccccc1)NC(=O)[C@@H](NC(=O)OCc1ccccc1)C(C)C (Cbz-Val-Phe-Leu-aldehyde)
11 | CC(C)C[C@@H](C=O)NC(=O)[C@H](CC(C)C)NC(=O)[C@H](Cc1ccccc1)NC(=O)OCc1ccccc1 (Cbz-Phe-Leu-Leu-aldehyde)
62 | CC(=O)N[C@@H](CC(C)C)C(=O)N[C@@H](CC(C)C)C(=O)N[C@@H](C=O)CC(C)C
6 | CC(C)C[C@@H](C=O)NC(=O)[C@H](CC(C)C)NC(=O)[C@H](CC(C)C)NC(=O)[C@H](C)NC(=O)OCc1ccccc1 (Cbz-ALLL-aldehyde)
35 | CC(C)C[C@H](NC(=O)OCc1ccccc1)C(=O)N[C@H](C=O)C(C)(C)C (Cbz-Leu-[Tle]-aldehyde)
25 | CC(C)C[C@@H](C=O)NC(=O)[C@H](CC(C)C)NC(=O)[C@H](CCC(=O)OC(C)(C)C)NC(=O)OCc1ccccc1 (Cbz-Glu(OtBu)-Leu-Leu-aldehyde)
12 | CCCC[C@@H](C=O)NC(=O)[C@H](CC(C)C)NC(=O)[C@H](CC(C)C)NC(C)=O (Ac-Leu-Leu-[Nle]-aldehyde)
15 | CC(C)C[C@@H](C=O)NC(=O)[C@H](CC(C)C)NC(=O)[C@@H]1Cc2ccccc2CN1C(=O)OCc1ccccc1 (Cbz-[Tic]-Leu-Leu-aldehyde)
20 | CC(C)C[C@@H](C=O)NC(=O)[C@H](CC(C)C)NC(=O)[C@H](CCCCN)NC(=O)OCc1ccccc1 (Cbz-Lys-Leu-Leu-aldehyde)
41 | CC[C@H](C)[C@H](NC(=O)OCc1ccccc1)C(=O)N[C@H](C=O)CC(C)C (Cbz-Ile-Leu-aldehyde)
8 | CC(C)C[C@@H](C=O)NC(=O)[C@H](CC(C)C)NC(=O)[C@H](Cc1ccc(O)cc1)NC(=O)OCc1ccccc1 (Cbz-Tyr-Leu-Leu-aldehyde)

IC50 [nM] | SMILES
11 | CC(C)C[C@@H](C=O)NC(=O)[C@H](CC(C)C)NC(=O)OCC1c2ccccc2-c2ccccc21
33 | CCCC[C@H](NC(=O)OCc1ccccc1)C(=O)N[C@H](C=O)CC(C)C
18 | CC(=O)N[C@@H](C)C(=O)N[C@@H](CC(C)C)C(=O)N[C@H](C=O)CC(C)C (Ac-Ala-Leu-Leu-aldehyde)
5 | CCCC[C@@H](C=O)NC(=O)[C@H](CC(C)C)NC(=O)OCc1ccccc1 [CALPEPTIN]
32 | CC(=O)N[C@@H](CC(C)C)C(=O)N[C@@H](CC(C)C)C(=O)N[C@H](C=O)Cc1ccccc1 (Ac-Leu-Leu-Phe-aldehyde)
45 | CC(C)C[C@@H](C=O)NC(=O)[C@H](Cc1c[nH]c2ccccc12)NC(=O)[C@H](CC(C)C)NC(=O)OCc1ccccc1 (Cbz-Leu-Trp-Leu-aldehyde)
4 | CC(C)C[C@H](NC(=O)OCc1ccccc1)C(=O)N[C@H](C=O)C(C)C (Cbz-Leu-Val-aldehyde)
33 | CC(=O)N[C@@H](CC(C)C)C(=O)N[C@@H](CC(C)C)C(=O)N[C@H](C=O)CCCCNC(=O)OC(C)(C)C (Ac-Leu-Leu-Lys(Boc)-aldehyde)
11 | CC(C)C[C@H](NC(=O)OCc1ccccc1)C(=O)N[C@H](C=O)CC1CCCCC1 (Cbz-Leu-[Cha]-aldehyde)
10 | CC(C)C[C@H](NC(=O)OCc1ccccc1)C(=O)N[C@H](C=O)Cc1ccccc1 (Cbz-Leu-Phe-aldehyde)
29 | CC(C)C[C@@H](C=O)NC(=O)[C@@H](NC(=O)OCc1ccccc1)C(C)C (Cbz-Val-Leu-aldehyde)
15 | CC(=O)N[C@@H](CC(C)C)C(=O)N[C@@H](CC(C)C)C(=O)N[C@H](C=O)CC(C)C
15 | CC(C)C[C@H](NC(=O)OCc1ccccc1)C(=O)N[C@H](C=O)Cc1cnc[nH]1 (Cbz-Leu-His-aldehyde)
5 | CC(C)C[C@@H](C=O)NC(=O)[C@H](CC(C)C)NC(=O)[C@H](C)NC(=O)OCc1ccccc1 (Cbz-Ala-Leu-Leu-aldehyde)
8 | CC(C)C[C@@H](C=O)NC(=O)[C@H](CC(C)C)NC(=O)OCc1ccccc1
37 | CC(=O)N[C@@H](COC(C)(C)C)C(=O)N[C@@H](CC(C)C)C(=O)N[C@H](C=O)CC(C)C (Ac-Ser(tBu)-Leu-Leu-aldehyde)
8 | CC(C)C[C@@H](C=O)NC(=O)[C@H](CC(C)C)NC(=O)OCc1ccc([N+](=O)[O-])cc1
40 | CC(C)C[C@@H](C=O)NC(=O)[C@H](CC(C)C)NC(=O)[C@H](CCC(=O)O)NC(=O)OCc1ccccc1 (Cbz-Glu-Leu-Leu-aldehyde)
